In PMC9322122, “Development of (4-Phenylamino)quinazoline Alkylthiourea Derivatives as Novel NF-κB Inhibitors” (Pharmaceuticals, 2022):

What was measured:
[1] = molecular target: T1, CHUK (IKK alpha) (Homo sapiens, UniProt O15111); assay: Kinase selectivity profiling (Thermo Fisher); type: biochemical; details: ATP 100 μM, mean of duplicates
T1 construct: purchased Thermo Fisher Scientific (screening service)
Procedure: (§1) Tabl e S1. Selectivity profiling of compound 19 ag ainst the protein kinases known to regulate the NF-kB pathway ki nase % Inhibiti on at 2 µMa […]
(§2) aScreenings were perf or med as a servi ce at Thermo Fisher Scientific at an ATP concentrat ion of 100 μM. n.i., no inhi biti on. Data represent mean values of duplicat es that differed by less t han 7%.

[2] = molecular target: T2, RIPK2 (Homo sapiens, UniProt O43353); assay: Kinase selectivity profiling (Thermo Fisher); type: biochemical; details: ATP 100 μM, mean of duplicates
T2 construct: purchased Thermo Fisher Scientific (screening service)
Procedure: as §1, §2

[3] = molecular target: T3, GSK3B (GSK3 beta) (Homo sapiens, UniProt P49841); assay: Kinase selectivity profiling (Thermo Fisher); type: biochemical; details: ATP 100 μM, mean of duplicates
T3 construct: purchased Thermo Fisher Scientific (screening service)
T3 sequence (P49841 whole entry): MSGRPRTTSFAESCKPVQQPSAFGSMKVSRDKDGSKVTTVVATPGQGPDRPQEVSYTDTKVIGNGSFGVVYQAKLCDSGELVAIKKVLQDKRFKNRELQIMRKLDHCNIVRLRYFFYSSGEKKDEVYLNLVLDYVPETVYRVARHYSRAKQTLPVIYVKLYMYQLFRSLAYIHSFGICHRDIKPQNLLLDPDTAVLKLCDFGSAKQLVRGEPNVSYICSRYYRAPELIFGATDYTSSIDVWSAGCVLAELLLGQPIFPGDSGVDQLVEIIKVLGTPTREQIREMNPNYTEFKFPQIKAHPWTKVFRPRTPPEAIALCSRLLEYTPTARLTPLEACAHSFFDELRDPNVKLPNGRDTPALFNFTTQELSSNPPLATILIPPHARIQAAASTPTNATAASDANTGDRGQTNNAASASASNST
Procedure: as §1, §2

[4] = molecular target: T4, RPS6KA1 (RSK1) (Homo sapiens, UniProt Q15418); assay: Kinase selectivity profiling (Thermo Fisher); type: biochemical; details: ATP 100 μM, mean of duplicates
T4 construct: purchased Thermo Fisher Scientific (screening service)
Procedure: as §1, §2

[5] = molecular target: T5, PRKCQ (PKC theta) (Homo sapiens, UniProt Q04759); assay: Kinase selectivity profiling (Thermo Fisher); type: biochemical; details: ATP 100 μM, n.i. = no inhibition
T5 construct: purchased Thermo Fisher Scientific (screening service)
Procedure: as §1, §2

[6] = molecular target: T6, IKBKE (IKK epsilon) (Homo sapiens, UniProt Q14164); assay: Kinase selectivity profiling (Thermo Fisher); type: biochemical; details: ATP 100 μM, mean of duplicates
T6 construct: purchased Thermo Fisher Scientific (screening service)
T6 sequence (Q14164 whole entry): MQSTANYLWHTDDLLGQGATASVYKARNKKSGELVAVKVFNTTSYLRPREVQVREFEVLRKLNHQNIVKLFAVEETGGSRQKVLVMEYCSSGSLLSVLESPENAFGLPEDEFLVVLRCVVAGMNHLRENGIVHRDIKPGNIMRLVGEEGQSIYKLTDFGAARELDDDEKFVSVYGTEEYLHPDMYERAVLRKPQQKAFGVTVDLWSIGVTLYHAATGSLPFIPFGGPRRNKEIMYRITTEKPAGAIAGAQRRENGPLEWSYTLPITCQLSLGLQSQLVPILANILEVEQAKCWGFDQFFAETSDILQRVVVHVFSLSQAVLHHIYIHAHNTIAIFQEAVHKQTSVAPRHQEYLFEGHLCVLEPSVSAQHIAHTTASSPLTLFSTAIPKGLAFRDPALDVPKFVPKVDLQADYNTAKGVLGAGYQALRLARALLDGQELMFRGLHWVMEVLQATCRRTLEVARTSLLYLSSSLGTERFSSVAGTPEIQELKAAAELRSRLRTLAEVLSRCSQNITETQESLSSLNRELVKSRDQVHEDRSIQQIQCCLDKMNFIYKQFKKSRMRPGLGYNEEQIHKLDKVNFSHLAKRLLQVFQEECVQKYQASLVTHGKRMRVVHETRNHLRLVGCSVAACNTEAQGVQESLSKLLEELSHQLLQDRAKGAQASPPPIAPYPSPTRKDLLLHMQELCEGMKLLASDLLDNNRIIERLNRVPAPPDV
Procedure: as §1, §2

[7] = molecular target: T7, TBK1 (Homo sapiens, UniProt Q9UHD2); assay: Kinase selectivity profiling (Thermo Fisher); type: biochemical; details: ATP 100 μM, mean of duplicates
T7 construct: purchased Thermo Fisher Scientific (screening service)
T7 sequence (Q9UHD2 whole entry): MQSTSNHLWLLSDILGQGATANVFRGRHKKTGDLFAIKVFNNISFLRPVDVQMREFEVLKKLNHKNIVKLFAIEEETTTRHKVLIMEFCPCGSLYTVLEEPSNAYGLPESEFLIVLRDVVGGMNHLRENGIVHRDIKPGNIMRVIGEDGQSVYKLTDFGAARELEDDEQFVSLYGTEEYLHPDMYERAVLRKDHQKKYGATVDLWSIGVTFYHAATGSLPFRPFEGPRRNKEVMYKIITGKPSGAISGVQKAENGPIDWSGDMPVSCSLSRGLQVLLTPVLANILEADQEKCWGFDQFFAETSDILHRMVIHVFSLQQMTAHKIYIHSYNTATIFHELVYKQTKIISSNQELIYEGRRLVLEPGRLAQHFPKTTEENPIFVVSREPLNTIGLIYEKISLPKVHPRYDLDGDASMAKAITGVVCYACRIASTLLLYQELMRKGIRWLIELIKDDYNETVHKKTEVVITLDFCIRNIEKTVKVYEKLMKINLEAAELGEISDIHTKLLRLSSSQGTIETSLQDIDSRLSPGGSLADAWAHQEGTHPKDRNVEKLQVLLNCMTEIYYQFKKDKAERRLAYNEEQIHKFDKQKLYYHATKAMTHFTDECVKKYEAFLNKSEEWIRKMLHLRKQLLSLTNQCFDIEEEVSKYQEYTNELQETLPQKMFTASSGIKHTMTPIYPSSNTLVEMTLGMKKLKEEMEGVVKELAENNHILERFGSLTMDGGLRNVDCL
Procedure: as §1, §2

[8] = molecular target: T8, IKBKB (IKK beta) (Homo sapiens, UniProt O14920); assay: Kinase selectivity profiling (Thermo Fisher); type: biochemical; details: ATP 100 μM, mean of duplicates
T8 construct: purchased Thermo Fisher Scientific (screening service)
Procedure: as §1, §2

[9] = molecular target: T9, IRAK4 (Homo sapiens, UniProt Q9NWZ3); assay: Kinase selectivity profiling (Thermo Fisher); type: biochemical; details: ATP 100 μM, mean of duplicates
T9 construct: purchased Thermo Fisher Scientific (screening service)
T9 sequence (Q9NWZ3 whole entry): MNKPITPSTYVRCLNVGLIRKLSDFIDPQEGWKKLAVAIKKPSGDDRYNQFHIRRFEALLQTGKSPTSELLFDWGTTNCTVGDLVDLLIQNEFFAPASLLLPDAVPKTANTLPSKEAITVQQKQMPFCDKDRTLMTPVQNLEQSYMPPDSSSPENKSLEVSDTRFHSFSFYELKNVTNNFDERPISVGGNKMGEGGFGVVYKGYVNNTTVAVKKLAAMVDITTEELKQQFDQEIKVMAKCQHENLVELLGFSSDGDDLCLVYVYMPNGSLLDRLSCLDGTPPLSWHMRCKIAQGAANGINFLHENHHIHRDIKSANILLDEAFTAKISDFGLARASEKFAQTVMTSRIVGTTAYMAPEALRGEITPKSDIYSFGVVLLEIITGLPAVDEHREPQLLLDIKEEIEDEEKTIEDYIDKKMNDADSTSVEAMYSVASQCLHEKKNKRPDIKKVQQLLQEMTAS
Procedure: as §1, §2

[10] = molecular target: T10, MAP3K14 (NIK) (Homo sapiens, UniProt Q99558); assay: Kinase selectivity profiling (Thermo Fisher); type: biochemical; details: ATP 100 μM, mean of duplicates
T10 construct: purchased Thermo Fisher Scientific (screening service)
T10 sequence (Q99558 whole entry): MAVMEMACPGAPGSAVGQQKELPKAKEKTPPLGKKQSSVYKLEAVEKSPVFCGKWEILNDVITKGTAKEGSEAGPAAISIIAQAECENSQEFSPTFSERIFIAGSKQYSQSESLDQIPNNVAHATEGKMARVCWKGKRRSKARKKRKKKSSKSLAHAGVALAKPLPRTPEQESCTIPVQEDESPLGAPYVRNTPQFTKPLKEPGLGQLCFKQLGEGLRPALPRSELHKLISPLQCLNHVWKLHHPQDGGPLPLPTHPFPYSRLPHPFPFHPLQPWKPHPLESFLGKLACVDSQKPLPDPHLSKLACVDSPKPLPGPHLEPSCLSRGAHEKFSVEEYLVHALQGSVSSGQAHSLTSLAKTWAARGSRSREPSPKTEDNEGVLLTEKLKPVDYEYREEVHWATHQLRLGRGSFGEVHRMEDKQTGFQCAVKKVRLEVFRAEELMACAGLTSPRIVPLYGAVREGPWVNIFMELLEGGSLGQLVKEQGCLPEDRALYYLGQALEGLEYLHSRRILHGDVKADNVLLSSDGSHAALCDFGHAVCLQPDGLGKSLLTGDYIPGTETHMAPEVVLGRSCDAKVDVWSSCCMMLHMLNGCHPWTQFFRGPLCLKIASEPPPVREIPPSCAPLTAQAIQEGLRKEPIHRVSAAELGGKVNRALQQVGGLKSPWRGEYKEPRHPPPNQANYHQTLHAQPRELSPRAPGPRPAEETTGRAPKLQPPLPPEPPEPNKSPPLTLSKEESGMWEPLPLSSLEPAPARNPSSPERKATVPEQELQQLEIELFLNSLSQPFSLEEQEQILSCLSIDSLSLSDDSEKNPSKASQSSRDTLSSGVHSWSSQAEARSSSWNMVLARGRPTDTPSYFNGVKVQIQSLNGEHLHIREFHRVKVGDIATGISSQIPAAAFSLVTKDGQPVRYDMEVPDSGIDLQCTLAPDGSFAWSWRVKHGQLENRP
Procedure: as §1, §2

[11] = molecular target: T11, MAPK3 (ERK1) (Homo sapiens, UniProt P27361); assay: Kinase selectivity profiling (Thermo Fisher); type: biochemical; details: ATP 100 μM, mean of duplicates
T11 construct: purchased Thermo Fisher Scientific (screening service)
T11 sequence (P27361 whole entry): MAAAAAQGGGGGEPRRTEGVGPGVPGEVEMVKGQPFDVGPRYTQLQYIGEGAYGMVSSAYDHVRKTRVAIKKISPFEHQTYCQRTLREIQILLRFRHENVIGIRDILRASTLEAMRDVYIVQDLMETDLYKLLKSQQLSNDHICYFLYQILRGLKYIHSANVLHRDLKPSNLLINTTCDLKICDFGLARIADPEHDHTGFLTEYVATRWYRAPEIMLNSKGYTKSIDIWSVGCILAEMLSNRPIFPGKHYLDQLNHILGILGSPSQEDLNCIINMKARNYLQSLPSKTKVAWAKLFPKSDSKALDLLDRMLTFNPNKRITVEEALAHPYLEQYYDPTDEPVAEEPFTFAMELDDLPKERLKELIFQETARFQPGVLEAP
Procedure: as §1, §2

[12] = molecular target: T12, MAPK14 (p38 alpha) (Homo sapiens, UniProt Q16539); assay: Kinase selectivity profiling (Thermo Fisher); type: biochemical; details: ATP 100 μM, mean of duplicates
T12 construct: purchased Thermo Fisher Scientific (screening service)
Procedure: as §1, §2

[13] = molecular target: T13, MAP3K7/MAP3K7IP1 (TAK1-TAB1) (Homo sapiens, UniProt O43318); assay: Kinase selectivity profiling (Thermo Fisher); type: biochemical; details: ATP 100 μM, mean of duplicates
T13 construct: purchased Thermo Fisher Scientific (screening service)
Procedure: as §1, §2

[14] = molecular target: T14, PRKCZ (PKC zeta) (Homo sapiens, UniProt Q05513); assay: Kinase selectivity profiling (Thermo Fisher); type: biochemical; details: ATP 100 μM, mean of duplicates
T14 construct: purchased Thermo Fisher Scientific (screening service)
Procedure: as §1, §2

[15] = molecular target: T15, PRKCI (PKC iota) (Homo sapiens, UniProt P41743); assay: Kinase selectivity profiling (Thermo Fisher); type: biochemical; details: ATP 100 μM, n.i. = no inhibition
T15 construct: purchased Thermo Fisher Scientific (screening service)
Procedure: as §1, §2

[16] = molecular target: T16, IRAK1 (Homo sapiens, UniProt P51617); assay: Kinase selectivity profiling (Thermo Fisher); type: biochemical; details: ATP 100 μM, mean of duplicates
T16 construct: purchased Thermo Fisher Scientific (screening service)
Procedure: as §1, §2

[17] = Cell viability (WST-1), HEK293; type: cell-based; details: human, HEK293 cells, mean ± SEM, n = 3
Procedure: (§3) Cells were incubated with the WST-1 reagent (Thermo Fisher Scientific, Waltham, MA, USA) at 37 °C for 2 h. The cell viability was determined by spectrophotometer at 450 nm.

[18] = Cell viability (WST-1), A549; type: cell-based; details: human, A549 cells, mean ± SEM, n = 3
Procedure: as §3

[19] = test system: phospho-NF-κB p65 (S536); assay: Western blot phospho-NF-κB p65 (S536) in dTHP-1 cells; type: cell-based, human; details: 7.5 µM; LPS-stimulated dTHP-1 cells
Procedure: Cells were lysed in the commercial RIPA Buffer (Thermo Fisher Scientific, Waltham, MA, USA) and then centrifuged at 14,000× g for 20 min. […] Antibodies used in this study were phospho-NF-κB p65 (S468; catalog no. 3039), phospho-NF-κB p65 (S536; catalog no. 3033), phospho-IKKα/β (catalog no. 2697), and IκB (catalog no. 9242) from Cell Signaling Technology (Beverly, MA, USA); GAPDH from ABclonal (catalog no. A10868; Woburn, MA, USA). The labeled signals were determined using an enhanced chemiluminescence system (UVP, Upland, CA, USA). The experiments were performed at least two times in triplicate, providing basically the same results.
The dTHP−1 cells were incubated with DMSO (0.1%), 19 (7.5 µM), or CAPE (10 µM) in medium for 3 h and then stimulated with or without LPS (0.1 µg/mL) for another 30 min. (A) The levels of phospho-NF-κB p65 (S536), phospho-IKKα/β, IκB, and GAPDH were determined by Western blot. The normalized (B) phospho-NF-κB p65 (S536), (C) phospho-IKKα/β, and (D) IκB levels were quantified. All data are expressed as mean ± SEM (n = 3); * p < 0.05 compared with the DMSO + LPS group.

[20] = test system: NF-κB; assay: NF-κB luciferase reporter assay; type: cell-based; details: Homo sapiens, NF-κB-luciferase-transfected HEK293 cells, TNFα 50 ng/mL
Procedure: NF-κB Luciferase Reporter Vector was purchased from Signosis (Santa Clara, CA, USA) and transfected into HEK-293 cells using FuGENE HD (Promega, Fitchburg, MA, USA) following the manufacturer’s protocol. The transfected cells were incubated in serum-free DMEM for 16 h and then treated with DMSO or indicated compounds. After 3 h, cells were treated with or without 50 ng/mL of Recombinant Human TNFα Protein (R&D systems, Minneapolis, MN, USA) for another 3 h. The protein lysates were analyzed using Steady-Glo® Luciferase Assay System (Promega, Fitchburg, MA, USA) and TECAN Infinite 200 pro (Männedorf, Switzerland).

[21] = molecular target: Recombinant EGFR kinase (Homo sapiens, UniProt P00533); assay: Recombinant EGFR kinase activity; type: biochemical; details: read-out: Recombinant EGFR Kinase Activity (%inh at 150 nM)
Sequence of Recombinant EGFR kinase (P00533 25-1210): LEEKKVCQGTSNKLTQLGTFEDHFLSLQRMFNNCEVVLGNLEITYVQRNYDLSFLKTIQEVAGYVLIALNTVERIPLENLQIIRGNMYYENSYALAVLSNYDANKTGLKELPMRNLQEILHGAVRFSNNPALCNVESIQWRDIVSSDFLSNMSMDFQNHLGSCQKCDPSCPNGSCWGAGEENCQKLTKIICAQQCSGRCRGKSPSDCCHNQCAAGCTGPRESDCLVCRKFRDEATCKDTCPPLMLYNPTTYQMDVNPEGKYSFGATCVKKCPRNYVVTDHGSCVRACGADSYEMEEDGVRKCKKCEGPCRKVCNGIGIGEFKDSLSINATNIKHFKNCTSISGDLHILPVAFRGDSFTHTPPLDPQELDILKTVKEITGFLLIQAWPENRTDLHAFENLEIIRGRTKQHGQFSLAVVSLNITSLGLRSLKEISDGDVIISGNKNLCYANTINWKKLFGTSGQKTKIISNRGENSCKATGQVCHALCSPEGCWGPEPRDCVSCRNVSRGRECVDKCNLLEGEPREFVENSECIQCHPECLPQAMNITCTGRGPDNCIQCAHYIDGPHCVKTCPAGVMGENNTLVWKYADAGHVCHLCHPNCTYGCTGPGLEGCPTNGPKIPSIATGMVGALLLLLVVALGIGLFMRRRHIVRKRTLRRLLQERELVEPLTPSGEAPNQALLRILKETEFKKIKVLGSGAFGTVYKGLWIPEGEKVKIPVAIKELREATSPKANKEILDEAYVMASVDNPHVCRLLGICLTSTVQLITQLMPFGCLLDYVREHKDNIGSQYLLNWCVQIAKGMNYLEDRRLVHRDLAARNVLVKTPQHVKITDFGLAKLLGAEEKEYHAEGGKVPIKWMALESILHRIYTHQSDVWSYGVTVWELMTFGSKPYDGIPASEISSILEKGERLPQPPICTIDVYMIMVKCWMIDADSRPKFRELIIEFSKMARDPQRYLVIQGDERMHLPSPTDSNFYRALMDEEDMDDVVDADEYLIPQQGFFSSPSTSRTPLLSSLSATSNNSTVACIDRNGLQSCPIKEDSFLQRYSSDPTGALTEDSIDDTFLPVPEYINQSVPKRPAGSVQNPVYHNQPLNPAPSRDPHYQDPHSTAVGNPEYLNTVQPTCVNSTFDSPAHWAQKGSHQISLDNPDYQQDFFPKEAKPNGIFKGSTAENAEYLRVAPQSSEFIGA

[22] = test system: protein kinases known to regulate the NF-κB pathway; assay: Kinase screening panel as a whole; type: biochemical; details: Table S1
From the text: While the EGFR kinase inhibitory activity was largely abolished here, it could not be excluded that our modifications may have generated affinity to another kinase. The most important kinases to be checked were those reported to phosphorylate p65-Ser468 in different cell types, comprising GSK3β, IKKβ, and IKKɛ [45, 46, 47]. In addition, all the kinases described in the literature to control the canonical and non-canonical pathway of NF-κB activation were also included in the screening panel. […] Instead, the inhibitory effect of 19 on the Ser468 phosphorylation might be indirect, e.g., through interference with proteins complexes regulating the Ser468 kinase activity.
as §1, §2

## S=C(Nc1ccc2ncnc(Nc3cccc(Cl)c3)c2c1)NC1CCCC1 [Compound 19, 1-(4-((3-Chlorophenyl)amino)quinazolin-6-yl)-3-cyclopentylthiourea]
[1]
  inhibition at 2 µM: 6%
[2]
  inhibition at 2 µM: 29%
[3]
  inhibition at 2 µM: 4%
[4]
  inhibition at 2 µM: 1%
[5]
  % Inhibition at 2 µM, PRKCQ (PKC theta): n.i.
[6]
  inhibition at 2 µM: 3%
[7]
  inhibition at 2 µM: 8%
[8]
  inhibition at 2 µM: 3%
[9]
  inhibition at 2 µM: 5%
[10]
  inhibition at 2 µM: 9%
[11]
  inhibition at 2 µM: 2%
[12]
  inhibition at 2 µM: 4%
[13]
  inhibition at 2 µM: 3%
[14]
  inhibition at 2 µM: 3%
[15]
  % Inhibition at 2 µM, PRKCI (PKC iota): n.i.
[16]
  inhibition at 2 µM: 2%
[17]
  viability at 10 µM: 118 ± 11.4%
[18]
  viability at 10 µM: 99.9 ± 1.6%
[19]
  Phosphorylation of p65 at Ser536: not affected
[20]; 10 μM, mean ± SEM, n = 3, read-out: NF-κB Luciferase Activity Inh %
  inhibition at 10 µM: 92.5 ± 0.8%
[20]
  IC50: 2.3 µM
[21]
  inhibition at 0.15 µM: 23%
[22]
  Inhibition of kinases involved in NF-κB activation (panel): did not appreciably inhibit any of these kinases
